“And” between values parts separate entries of the source, which are not always exact repeats. Equal values may be shown once.
Columns and labels:
cell-viability assay [1] = assay type: cell-based; settings: human, SH-SY5Y cells
cell-viability assay [2] = assay type: cell-based; settings: human, Hep-G2 cells
ADAM17 = ADAM17 (Homo sapiens, UniProt P78536); assay: off-target proteinase inhibition ADAM17; assay type: biochemical; settings: read-out: Relative enzyme activity ADAM17
ADAM10 = molecular target: T1, ADAM10 (Homo sapiens, UniProt O14672); assay: off-target proteinase inhibition ADAM10; assay type: biochemical; settings: read-out: Relative enzyme activity ADAM10
T1 sequence (O14672 214-748): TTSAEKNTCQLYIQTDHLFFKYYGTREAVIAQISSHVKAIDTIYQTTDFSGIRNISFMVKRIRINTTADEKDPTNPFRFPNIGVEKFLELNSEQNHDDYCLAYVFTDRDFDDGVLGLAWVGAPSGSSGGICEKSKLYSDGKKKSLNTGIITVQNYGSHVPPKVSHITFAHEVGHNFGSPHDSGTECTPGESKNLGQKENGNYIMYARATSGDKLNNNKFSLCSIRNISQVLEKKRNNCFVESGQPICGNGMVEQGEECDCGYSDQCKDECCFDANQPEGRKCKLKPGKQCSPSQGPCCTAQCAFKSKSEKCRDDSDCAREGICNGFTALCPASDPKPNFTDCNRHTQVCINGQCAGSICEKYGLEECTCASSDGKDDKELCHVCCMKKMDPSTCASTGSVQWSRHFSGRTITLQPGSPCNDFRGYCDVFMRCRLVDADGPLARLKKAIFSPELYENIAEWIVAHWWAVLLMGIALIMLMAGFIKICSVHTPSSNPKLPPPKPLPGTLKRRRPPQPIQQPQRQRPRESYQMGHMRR

[3] = molecular target: T2, recombinant human meprin β (Homo sapiens, UniProt Q16820); assay: meprin β inhibition, quenched fluorogenic peptide substrate assay; assay type: biochemical
T2 sequence (Q16820 62-701): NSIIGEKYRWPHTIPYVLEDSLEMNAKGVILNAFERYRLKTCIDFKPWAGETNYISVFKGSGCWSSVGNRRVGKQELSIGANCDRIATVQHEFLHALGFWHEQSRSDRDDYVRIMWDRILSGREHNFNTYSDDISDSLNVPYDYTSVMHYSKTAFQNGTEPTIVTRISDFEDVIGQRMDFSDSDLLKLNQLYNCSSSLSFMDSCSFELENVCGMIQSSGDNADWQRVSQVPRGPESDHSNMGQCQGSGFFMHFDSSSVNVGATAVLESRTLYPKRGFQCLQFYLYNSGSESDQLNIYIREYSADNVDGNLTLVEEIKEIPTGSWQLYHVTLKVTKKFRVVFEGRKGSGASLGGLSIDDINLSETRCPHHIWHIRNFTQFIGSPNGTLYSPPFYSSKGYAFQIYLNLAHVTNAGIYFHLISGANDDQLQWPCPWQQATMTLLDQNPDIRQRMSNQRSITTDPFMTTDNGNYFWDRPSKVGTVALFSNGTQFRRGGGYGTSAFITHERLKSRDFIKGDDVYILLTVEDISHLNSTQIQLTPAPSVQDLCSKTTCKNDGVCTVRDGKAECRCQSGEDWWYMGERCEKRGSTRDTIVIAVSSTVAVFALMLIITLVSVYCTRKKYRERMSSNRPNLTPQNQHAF

[4] = molecular target: T3, recombinant human meprin α (Homo sapiens, UniProt Q16819); assay: meprin α inhibition, quenched fluorogenic peptide substrate assay; assay type: biochemical; settings: for SF: selectivity factor (K i app meprin β/K i app meprin α): meprin α over meprin β
T3 sequence (Q16819 66-746): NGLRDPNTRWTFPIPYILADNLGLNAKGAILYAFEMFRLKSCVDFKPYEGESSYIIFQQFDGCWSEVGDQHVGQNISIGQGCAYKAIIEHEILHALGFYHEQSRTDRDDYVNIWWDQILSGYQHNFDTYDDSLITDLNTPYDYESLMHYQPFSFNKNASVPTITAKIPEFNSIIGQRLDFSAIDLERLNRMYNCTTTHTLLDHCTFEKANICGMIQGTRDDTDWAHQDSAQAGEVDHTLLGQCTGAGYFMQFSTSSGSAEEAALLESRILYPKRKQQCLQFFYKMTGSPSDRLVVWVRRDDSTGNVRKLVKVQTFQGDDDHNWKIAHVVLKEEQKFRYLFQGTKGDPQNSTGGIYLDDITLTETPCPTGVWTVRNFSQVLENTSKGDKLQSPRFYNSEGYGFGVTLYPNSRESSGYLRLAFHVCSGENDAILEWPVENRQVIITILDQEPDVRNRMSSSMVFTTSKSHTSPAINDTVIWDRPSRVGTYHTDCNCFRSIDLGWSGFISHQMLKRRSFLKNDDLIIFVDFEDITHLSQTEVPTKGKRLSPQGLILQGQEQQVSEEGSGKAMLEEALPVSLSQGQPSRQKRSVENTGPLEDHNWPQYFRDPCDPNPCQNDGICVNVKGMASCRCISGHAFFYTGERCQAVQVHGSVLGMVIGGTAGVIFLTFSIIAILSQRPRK

MMP9 = MMP9 (Homo sapiens, UniProt P14780); assay: off-target proteinase inhibition MMP9; assay type: biochemical; settings: read-out: Relative enzyme activity MMP9
Chain of MMP9 (P14780 107-707 limits assumed): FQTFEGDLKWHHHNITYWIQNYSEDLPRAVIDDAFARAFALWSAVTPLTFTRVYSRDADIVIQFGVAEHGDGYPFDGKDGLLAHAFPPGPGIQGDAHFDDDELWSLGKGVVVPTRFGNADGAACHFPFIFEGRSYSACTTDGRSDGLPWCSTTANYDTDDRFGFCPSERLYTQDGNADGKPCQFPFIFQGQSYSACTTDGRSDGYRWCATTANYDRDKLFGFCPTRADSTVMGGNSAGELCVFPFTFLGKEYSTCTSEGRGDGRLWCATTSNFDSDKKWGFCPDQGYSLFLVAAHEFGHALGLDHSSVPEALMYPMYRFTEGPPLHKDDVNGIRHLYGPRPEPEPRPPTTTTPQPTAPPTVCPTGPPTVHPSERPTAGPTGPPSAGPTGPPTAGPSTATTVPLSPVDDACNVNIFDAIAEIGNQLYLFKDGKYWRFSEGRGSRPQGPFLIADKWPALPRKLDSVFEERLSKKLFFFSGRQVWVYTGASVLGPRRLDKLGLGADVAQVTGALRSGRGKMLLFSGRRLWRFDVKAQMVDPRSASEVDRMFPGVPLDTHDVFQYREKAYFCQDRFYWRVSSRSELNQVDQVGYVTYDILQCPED

MMP13 = MMP13 (Homo sapiens, UniProt P45452); assay: off-target proteinase inhibition MMP13; assay type: biochemical; settings: read-out: Relative enzyme activity MMP13
MMP2 = molecular target: T4, MMP2 (Homo sapiens, UniProt P08253); assay: off-target proteinase inhibition MMP2; assay type: biochemical; settings: read-out: Relative enzyme activity MMP2
T4 sequence (P08253 110-660): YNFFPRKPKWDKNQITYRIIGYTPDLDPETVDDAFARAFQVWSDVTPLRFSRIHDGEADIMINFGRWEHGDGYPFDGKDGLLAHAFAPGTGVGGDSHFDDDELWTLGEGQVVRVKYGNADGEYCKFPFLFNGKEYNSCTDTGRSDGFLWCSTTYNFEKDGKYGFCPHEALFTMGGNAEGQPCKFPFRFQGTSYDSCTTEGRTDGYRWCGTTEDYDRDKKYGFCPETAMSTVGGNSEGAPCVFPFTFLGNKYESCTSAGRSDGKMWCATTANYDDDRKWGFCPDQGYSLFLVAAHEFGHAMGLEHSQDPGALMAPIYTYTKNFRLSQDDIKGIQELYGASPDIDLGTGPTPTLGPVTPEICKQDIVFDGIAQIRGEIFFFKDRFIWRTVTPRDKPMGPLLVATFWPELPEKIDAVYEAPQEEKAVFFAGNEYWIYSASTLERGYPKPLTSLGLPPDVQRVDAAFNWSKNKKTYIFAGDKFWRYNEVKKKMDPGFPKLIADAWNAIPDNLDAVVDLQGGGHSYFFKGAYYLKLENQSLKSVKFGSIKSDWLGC

mouse ovastacin = molecular target: T5, mouse ovastacin (Mus musculus, UniProt Q6HA09); assay: ovastacin inhibition, fluorogenic enzyme activity assay
T5 sequence (Q6HA09 86-435 limits assumed): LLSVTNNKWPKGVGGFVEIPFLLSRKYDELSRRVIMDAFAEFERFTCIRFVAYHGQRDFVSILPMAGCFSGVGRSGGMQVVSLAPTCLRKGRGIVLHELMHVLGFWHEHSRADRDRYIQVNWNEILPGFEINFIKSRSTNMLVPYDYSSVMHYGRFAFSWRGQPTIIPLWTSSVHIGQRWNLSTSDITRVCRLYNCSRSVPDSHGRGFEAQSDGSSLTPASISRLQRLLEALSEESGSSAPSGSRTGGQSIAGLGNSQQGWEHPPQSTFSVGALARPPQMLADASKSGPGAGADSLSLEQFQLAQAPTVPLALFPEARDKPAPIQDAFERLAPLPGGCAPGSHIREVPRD

Chain of ADAM17 (P78536 215-824): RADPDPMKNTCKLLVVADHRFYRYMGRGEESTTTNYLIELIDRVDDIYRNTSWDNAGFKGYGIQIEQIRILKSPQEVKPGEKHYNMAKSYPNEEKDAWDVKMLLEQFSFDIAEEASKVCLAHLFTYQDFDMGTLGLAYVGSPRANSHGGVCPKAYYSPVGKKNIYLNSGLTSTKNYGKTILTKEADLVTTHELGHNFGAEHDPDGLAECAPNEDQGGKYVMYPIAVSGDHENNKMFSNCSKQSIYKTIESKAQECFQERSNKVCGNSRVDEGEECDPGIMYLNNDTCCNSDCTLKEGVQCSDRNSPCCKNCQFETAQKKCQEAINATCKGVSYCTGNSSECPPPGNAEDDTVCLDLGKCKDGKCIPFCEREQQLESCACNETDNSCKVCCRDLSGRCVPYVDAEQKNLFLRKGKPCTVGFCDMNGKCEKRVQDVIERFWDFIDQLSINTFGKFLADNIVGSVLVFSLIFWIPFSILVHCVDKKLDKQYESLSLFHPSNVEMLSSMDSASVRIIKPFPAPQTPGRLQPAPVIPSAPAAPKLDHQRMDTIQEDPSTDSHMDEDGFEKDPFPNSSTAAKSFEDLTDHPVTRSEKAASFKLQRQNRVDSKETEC

SMILES | remaining activity at 10 µM (ADAM17) [%] | remaining activity at 200 µM (ADAM17) [%] | remaining activity at 10 µM (ADAM10) [%] | remaining activity at 200 µM (ADAM10) [%] | Ki [3] [nM] | Ki [4] [nM] | SF: selectivity factor (K i app meprin β/K i app meprin α) [4] | remaining activity at 10 µM (MMP9) [%] | remaining activity at 200 µM (MMP9) [%] | remaining activity at 10 µM (MMP13) [%] | remaining activity at 200 µM (MMP13) [%] | remaining activity at 10 µM (MMP2) [%] | remaining activity at 200 µM (MMP2) [%] | Ki (mouse ovastacin) [nM] | SF Meprin α: selectivity factor (K i app ovastacin/K i app meprin α) (mouse ovastacin) | SF Meprin β: selectivity factor (K i app ovastacin/K i app meprin β) (mouse ovastacin) | viability at 24 h, 30 µM (cell-viability assay [1]) [%] | viability at 24 h, 30 µM (cell-viability assay [2]) [%] | also measured
O=C(CCc1c(-c2ccccc2)noc1-c1ccccc1)NO [2 d, 3‐(3,5‐Diphenylisoxazol‐4‐yl)propanehydroxamic acid] | 75 | 24 | 75 | 21 | 13500 | 31 | 435 | 89 | 39 | 79 | 66 | 98 | 74 |  |  |  | 123 | 90 | 
O=C(CCc1c(-c2ccccc2)n[nH]c1-c1ccccc1)NO [2 f, 3‐(3,5‐Diphenyl‐1H‐pyrazol‐4‐yl)propanehydroxamic acid] | 76 | 27 | 66 | 12 | 8030 | 76 | 106 | 93 | 65 | 93 | 68 | 97 | 77 | 2420 | 32 | 0.3 | 93 | 93 | 
O=C(Cc1c(-c2ccccc2)noc1-c1ccccc1)NO [2 c, 2‐(3,5‐Diphenylisoxazol‐4‐yl)ethanehydroxamic acid] | 62 | 9 | 80 | 22 | 813 |  | 200 and 203 | 86 | 16 | 80 | 31 | 87 | 34 | 66 | 17 | 0.1 | 96 | 85 | fold increase in activity against meprin β compared to 2 a ([3]; compared to pyrrole 2 a): 5 fold; fold improvement in potency against meprin α compared to amine 1 d ([4]; compared to 1 d): 2000 fold; fold increase in activity against meprin α compared to 2 a ([4]; compared to pyrrole 2 a): 5 fold
O=C(Cc1c(-c2ccccc2)n[nH]c1-c1ccccc1)NO [2 e, 2‐(3,5‐Diphenyl‐1H‐pyrazol‐4‐yl)ethanehydroxamic acid] | 61 | 7 | 73 | 23 | 199 | 3 | 66 | 81 | 27 | 75 | 67 | 104 | 61 | 196 | 65 | 1 |  |  | 

Further lines, with some results ahead:

remaining activity at 10 µM (ADAM17) [%] | remaining activity at 200 µM (ADAM17) [%] | remaining activity at 10 µM (ADAM10) [%] | remaining activity at 200 µM (ADAM10) [%] | Ki [3] [nM] | Ki [4] [nM] | SF: selectivity factor (K i app meprin β/K i app meprin α) [4] | remaining activity at 10 µM (MMP9) [%] | remaining activity at 200 µM (MMP9) [%] | remaining activity at 10 µM (MMP13) [%] | remaining activity at 200 µM (MMP13) [%] | remaining activity at 10 µM (MMP2) [%] | remaining activity at 200 µM (MMP2) [%] | Ki (mouse ovastacin) [nM] | SF Meprin α: selectivity factor (K i app ovastacin/K i app meprin α) (mouse ovastacin) | SF Meprin β: selectivity factor (K i app ovastacin/K i app meprin β) (mouse ovastacin) | SMILES | viability at 24 h, 30 µM (cell-viability assay [1]) [%] | viability at 24 h, 30 µM (cell-viability assay [2]) [%] | also measured
90 | 56 | 89 | 83 | 8680 | 66 | 132 | 99 | 54 | 93 | 76 | 95 | 70 | 4880 | 74 | 0.6 | O=C(Cn1c(-c2ccccc2)nnc1-c1ccccc1)NO [2 g, 2‐(3,5‐Diphenyl‐1,2,4‐triazol‐4‐yl)ethanehydroxamic acid] | 99 | 94 | 
92 | 56 | 87 | 76 | 1620 | 163 | 10 | 96 | 68 | 102 | 72 | 89 | 46 | 2090 | 13 | 1.3 | O=C(Cn1c(-c2ccccc2)nc2ccccc21)NO [4 c, 2‐(2‐Phenylbenzimidazol‐1‐yl)ethanehydroxamic acid] | 94 | 85 | 

— PMC8048867 (Chemmedchem, 2020)
